According to patent publication US20220169628A1 (University of Florida Research Foundation, Incorporated, priority 2019, published 2022):

Tests used:
[1] = tested on: MOLT-4 cells; test: Cell viability assay, MTS, 48 h, MOLT-4; assay type: cell-based; conditions: Homo sapiens, MOLT-4, 48 h, 48 hours, read-out: IC50 (48 hours) MOLT-4
Procedure: (§1) Acute lymphoblastic leukemia cells (MOLT-4 and RS4; 11) or small cell lung cancer (NCI-H146 or simply H146) were incubated with increasing concentrations of Bcl-xL degraders for 48 h. Cell viability was measured by tetrazolium-based MTS assay.

[2] = tested on: RS4;11 cells; test: Cell viability assay, MTS, 48 h, RS4;11; assay type: cell-based; conditions: Homo sapiens, RS4-11, 48 h, 48 hours, read-out: IC50 (48 hours) RS4;11
Procedure: as §1

For `CC1(CNC(=O)COCCOCCNc2cccc3c2C(=O)N(C2CCC(=O)NC2=O)C3=O)CCC(c2ccc(Cl)cc2)=C(CN2CCN(c3ccc(C(=O)NS(=O)(=O)c4ccc(N[C@H](CCN5CCOCC5)CSc5ccccc5)c(S(=O)(=O)C(F)(F)F)c4)cc3)CC2)C1` (stereo partly drawn) [compound 77, 4-(4-((4′-chloro-4-((2-(2-(2-((2-(2,6-dioxopiperidin-3-yl)-1,3-dioxoisoindolin-4-yl)amino)ethoxy)ethoxy)acetamido)methyl)-4-methyl-3,4,5,6-tetrahydro-[1,1′-biphenyl]-2-yl)methyl)piperazin-1-yl)-N-((4-(((R)-4-morpholino-1-(phenylthio)butan-2-yl)amino)-3-((trifluoromethyl)sulfonyl)phenyl)sulfonyl)benzamide], the IC50 [1] was < 50 nM and the IC50 [2] was < 50 nM.
For `CC1(CNC(=O)COCCOCCOCCNc2cccc3c2C(=O)N(C2CCC(=O)NC2=O)C3=O)CCC(c2ccc(Cl)cc2)=C(CN2CCN(c3ccc(C(=O)NS(=O)(=O)c4ccc(N[C@H](CCN5CCOCC5)CSc5ccccc5)c(S(=O)(=O)C(F)(F)F)c4)cc3)CC2)C1` (stereo partly drawn) [compound 78, 4-(4-((4′-chloro-4-(13-((2-(2,6-dioxopiperidin-3-yl)-1,3-dioxoisoindolin-4-yl)amino)-3-oxo-5,8,11-trioxa-2-azatridecyl)-4-methyl-3,4,5,6-tetrahydro-[1,1′-biphenyl]-2-yl)methyl)piperazin-1-yl)-N-((4-(((R)-4-morpholino-1-(phenylthio)butan-2-yl)amino)-3-((trifluoromethyl)sulfonyl)phenyl)sulfonyl)benzamide], the IC50 [1] was < 50 nM and the IC50 [2] was < 50 nM.
`Cc1ncsc1-c1ccc([C@H](C)NC(=O)[C@@H]2C[C@@H](O)CN2C(=O)[C@@H](NC(=O)CCC(=O)N2CCC(c3ccc(Cl)cc3)=C(CN3CCN(c4ccc(C(=O)NS(=O)(=O)c5ccc(N[C@H](CCN6CCOCC6)CSc6ccccc6)c(S(=O)(=O)C(F)(F)F)c5)cc4)CC3)C2)C(C)(C)C)cc1` [compound 79, (2S,4R)-1-((S)-2-(4-(4-(4-chlorophenyl)-5-((4-(4-(((4-(((R)-4-morpholino-1-(phenylthio)butan-2-yl)amino)-3-((trifluoromethyl)sulfonyl)phenyl)sulfonyl)carbamoyl)phenyl)piperazin-1-yl)methyl)-3,6-dihydropyridin-1(2H)-yl)-4-oxobutanamido)-3,3-dimethylbutanoyl)-4-hydroxy-N—((S)-1-(4-(4-methylthiazol-5-yl)phenyl)ethyl)pyrrolidine-2-carboxamide] was tested, and the IC50 [1] was > 500 nM and the IC50 [2] was > 500 nM.
`Cc1ncsc1-c1ccc([C@H](C)NC(=O)[C@@H]2C[C@@H](O)CN2C(=O)[C@@H](NC(=O)CCCCCC(=O)N2CCC(c3ccc(Cl)cc3)=C(CN3CCN(c4ccc(C(=O)NS(=O)(=O)c5ccc(N[C@H](CCN6CCOCC6)CSc6ccccc6)c(S(=O)(=O)C(F)(F)F)c5)cc4)CC3)C2)C(C)(C)C)cc1` [compound 80, (2S,4R)-1-((S)-2-(7-(4-(4-chlorophenyl)-5-((4-(4-(((4-(((R)-4-morpholino-1-(phenylthio)butan-2-yl)amino)-3-((trifluoromethyl)sulfonyl)phenyl)sulfonyl)carbamoyl)phenyl)piperazin-1-yl)methyl)-3,6-dihydropyridin-1(2H)-yl)-7-oxoheptanamido)-3,3-dimethylbutanoyl)-4-hydroxy-N—((S)-1-(4-(4-methylthiazol-5-yl)phenyl)ethyl)pyrrolidine-2-carboxamide] was tested, and the IC50 [1] was > 500 nM and the IC50 [2] was > 500 nM.
With `Cc1ncsc1-c1ccc([C@H](C)NC(=O)[C@@H]2C[C@@H](O)CN2C(=O)[C@@H](NC(=O)CCCCCCCCC(=O)N2CCC(c3ccc(Cl)cc3)=C(CN3CCN(c4ccc(C(=O)NS(=O)(=O)c5ccc(N[C@H](CCN6CCOCC6)CSc6ccccc6)c(S(=O)(=O)C(F)(F)F)c5)cc4)CC3)C2)C(C)(C)C)cc1` [compound 83, (2S,4R)-1-((S)-2-(10-(4-(4-chlorophenyl)-5-((4-(4-(((4-(((R)-4-morpholino-1-(phenylthio)butan-2-yl)amino)-3-((trifluoromethyl)sulfonyl)phenyl)sulfonyl)carbamoyl)phenyl)piperazin-1-yl)methyl)-3,6-dihydropyridin-1(2H)-yl)-10-oxodecanamido)-3,3-dimethylbutanoyl)-4-hydroxy-N—((S)-1-(4-(4-methylthiazol-5-yl)phenyl)ethyl)pyrrolidine-2-carboxamide] the IC50 [1] was 50 to 150 nM and the IC50 [2] was 150 to 500 nM.
Work on `Cc1ncsc1-c1ccc([C@H](C)NC(=O)[C@@H]2C[C@@H](O)CN2C(=O)[C@@H](NC(=O)CCCCCCCCCC(=O)N2CCC(c3ccc(Cl)cc3)=C(CN3CCN(c4ccc(C(=O)NS(=O)(=O)c5ccc(N[C@H](CCN6CCOCC6)CSc6ccccc6)c(S(=O)(=O)C(F)(F)F)c5)cc4)CC3)C2)C(C)(C)C)cc1` [compound 84, (2S,4R)-1-((S)-2-(11-(4-(4-chlorophenyl)-5-((4-(4-(((4-(((R)-4-morpholino-1-(phenylthio)butan-2-yl)amino)-3-((trifluoromethyl)sulfonyl)phenyl)sulfonyl)carbamoyl)phenyl)piperazin-1-yl)methyl)-3,6-dihydropyridin-1(2H)-yl)-11-oxoundecanamido)-3,3-dimethylbutanoyl)-4-hydroxy-N—((S)-1-(4-(4-methylthiazol-5-yl)phenyl)ethyl)pyrrolidine-2-carboxamide] yielded an IC50 [1] of 150 to 500 nM and an IC50 [2] of 150 to 500 nM.
`Cc1ncsc1-c1ccc([C@H](C)NC(=O)[C@@H]2C[C@@H](O)CN2C(=O)[C@@H](NC(=O)CCCCCCCCCCC(=O)N2CCC(c3ccc(Cl)cc3)=C(CN3CCN(c4ccc(C(=O)NS(=O)(=O)c5ccc(N[C@H](CCN6CCOCC6)CSc6ccccc6)c(S(=O)(=O)C(F)(F)F)c5)cc4)CC3)C2)C(C)(C)C)cc1` [compound 85, (2S,4R)-1-((S)-2-(12-(4-(4-chlorophenyl)-5-((4-(4-(((4-(((R)-4-morpholino-1-(phenylthio)butan-2-yl)amino)-3-((trifluoromethyl)sulfonyl)phenyl)sulfonyl)carbamoyl)phenyl)piperazin-1-yl)methyl)-3,6-dihydropyridin-1(2H)-yl)-12-oxododecanamido)-3,3-dimethylbutanoyl)-4-hydroxy-N—((S)-1-(4-(4-methylthiazol-5-yl)phenyl)ethyl)pyrrolidine-2-carboxamide] gave an IC50 [1] of 50 to 150 nM and an IC50 [2] of 50 to 150 nM.
With `Cc1ncsc1-c1ccc([C@H](C)NC(=O)[C@@H]2C[C@@H](O)CN2C(=O)[C@@H](NC(=O)COCCOCCOCCOC(=O)N2CCC(c3ccc(Cl)cc3)=C(CN3CCN(c4ccc(C(=O)NS(=O)(=O)c5ccc(N[C@H](CCN6CCOCC6)CSc6ccccc6)c(S(=O)(=O)C(F)(F)F)c5)cc4)CC3)C2)C(C)(C)C)cc1` [compound 86, (S)-13-((2S,4R)-4-hydroxy-2-(((S)-1-(4-(4-methylthiazol-5-yl)phenyl)ethyl)carbamoyl)pyrrolidine-1-carbonyl)-14,14-dimethyl-11-oxo-3,6,9-trioxa-12-azapentadecyl 4-(4-chlorophenyl)-5-((4-(4-(((4-(((R)-4-morpholino-1-(phenylthio)butan-2-yl)amino)-3-((trifluoromethyl)sulfonyl)phenyl)sulfonyl)carbamoyl)phenyl)piperazin-1-yl)methyl)-3,6-dihydropyridine-1(2H)-carboxylate] the IC50 [1] was > 500 nM and the IC50 [2] was > 500 nM.
In the case of `Cc1ncsc1-c1ccc([C@H](C)NC(=O)[C@@H]2C[C@@H](O)CN2C(=O)[C@@H](NC(=O)COCCOCCOCCOCCOC(=O)N2CCC(c3ccc(Cl)cc3)=C(CN3CCN(c4ccc(C(=O)NS(=O)(=O)c5ccc(N[C@H](CCN6CCOCC6)CSc6ccccc6)c(S(=O)(=O)C(F)(F)F)c5)cc4)CC3)C2)C(C)(C)C)cc1` [compound 87, (S)-16-((2S,4R)-4-hydroxy-2-(((S)-1-(4-(4-methylthiazol-5-yl)phenyl)ethyl)carbamoyl)pyrrolidine-1-carbonyl)-17,17-dimethyl-14-oxo-3,6,9,12-tetraoxa-15-azaoctadecyl 4-(4-chlorophenyl)-5-((4-(4-(((4-(((R)-4-morpholino-1-(phenylthio)butan-2-yl)amino)-3-((trifluoromethyl)sulfonyl)phenyl)sulfonyl)carbamoyl)phenyl)piperazin-1-yl)methyl)-3,6-dihydropyridine-1(2H)-carboxylate], the IC50 [1] is reported as > 500 nM and the IC50 [2] is reported as > 500 nM.
For `Cc1ncsc1-c1ccc([C@@H](C)NC(=O)[C@@H]2C[C@@H](O)CN2C(=O)[C@@H](NC(=O)CCCCCCCCCN2CCC(c3ccc(Cl)cc3)=C(CN3CCN(c4ccc(C(=O)NS(=O)(=O)c5ccc(N[C@H](CCN6CCOCC6)CSc6ccccc6)c(S(=O)(=O)C(F)(F)F)c5)cc4)CC3)C2)C(C)(C)C)cc1` [compound 88, (2S,4R)-1-((S)-2-(10-(4-(4-chlorophenyl)-5-((4-(4-(((4-(((R)-4-morpholino-1-(phenylthio)butan-2-yl)amino)-3-((trifluoromethyl)sulfonyl)phenyl)sulfonyl)carbamoyl)phenyl)piperazin-1-yl)methyl)-3,6-dihydropyridin-1(2H)-yl)decanamido)-3,3-dimethylbutanoyl)-4-hydroxy-N—((R)-1-(4-(4-methylthiazol-5-yl)phenyl)ethyl)pyrrolidine-2-carboxamide], the IC50 [1] was 150 to 500 nM and the IC50 [2] was > 500 nM.
For `Cc1ncsc1-c1ccc([C@H](C)NC(=O)[C@@H]2C[C@@H](O)CN2C(=O)[C@@H](NC(=O)COCCOCCOCCOCC(=O)NCC2(C)CCC(c3ccc(Cl)cc3)=C(CN3CCN(c4ccc(C(=O)NS(=O)(=O)c5ccc(N[C@H](CCN6CCOCC6)CSc6ccccc6)c(S(=O)(=O)C(F)(F)F)c5)cc4)CC3)C2)C(C)(C)C)cc1` (stereo partly drawn) [degrader #9, N1-((4′-chloro-4-methyl-6-((4-(4-(((4-(((R)-4-morpholino-1-(phenylthio)butan-2-yl)amino)-3-((trifluoromethyl)sulfonyl)phenyl)sulfonyl)carbamoyl)phenyl)piperazin-1-yl)methyl)-2,3,4,5-tetrahydro-[1,1′-biphenyl]-4-yl)methyl)-N14-((S)-1-((2S,4R)-4-hydroxy-2-(((S)-1-(4-(4-methylthiazol-5-yl)phenyl)ethyl)carbamoyl)pyrrolidin-1-yl)-3,3-dimethyl-1-oxobutan-2-yl)-3,6,9,12-tetraoxatetradecanediamide], the IC50 [1] was > 500 nM and the IC50 [2] was 150 to 500 nM.
